Test results: patent publication US20220119375A1, “3-ARYLOXY-3-ARYL-PROPYLAMINE COMPOUND AND USES THEREOF” (Zhangzhou Pien Tze Huang Pharmaceutical Co., Ltd., priority 2018, published 2022)

Tests used:
SH—SY5Y cells = experiment: Cytotoxicity test (CCK-8), neurotoxicity; format: cell-based; settings: Homo sapiens, 72 h
Description: HepG-2 and SH—SY5Y cells were placed in 10 cm dish and cultured at 37° C., 5% CO2 in a cell incubator. Trypsin was used to digest and resuspend cells and cells were counted. The cells were transferred to 96-well plate with 8000 cells in a well (100 μl/well). A serial of gradient concentration dilutions of compound with 2-fold dilution were prepared, and the system was 100 μL/well. The supernatant of cell culture system in the 96-well plate was removed on the first day, and fresh-prepared drug concentration system was add into culture plate wells (duplicate wells were set). The cells were cultured at 37° C., 5% CO2 in a cell incubator for 72 h. After the cell culture was completed, the supernatant of cell culture system was removed from 96-well plate, 100 μl of detection solution containing 10% CCK-8 medium was added into each well, and the cells were cultured at 37° C., 5% CO2 in a cell incubator for 1 h. Microplate reader was used to measure the absorbance at 450 nm. Data was processed to calculate cytotoxicity, and IC50 was calculated by GraphPad Prism. […]
A (Dosing): the absorbance of wells containing cells, CCK-8 solution and drug solution.
A (control): the absorbance of wells containing medium and CCK-8 solution and without cells.
A (0 Dosing): the absorbance of wells containing cells and CCK-8 solution but without drug solution.

C57BL/6 mice, ICS model = experiment: mice ICS model (fibromyalgia), mechanical allodynia test; format: in vivo, mouse; settings: 10 mg/kg oral
Description: After completely dissolved, the duloxetine was administered orally. The volume of administration was 5 ml/kg.
10 mg/kg compound Ic-1:17 mg of compound Ic-1 was weighed, dissolved in saline and diluted to 8.5 mL. After completely dissolved, the compound Ic-1 was administered orally. The volume of administration was 5 ml/kg.
Male C57BL/6 mice weighed 18-22 g were selected at the beginning of experiment. Each cage had 4 mice which were allowed to feed and drink water freely. Each experimental group had 12 mice, and the experimental mice were labeled by tail labeling method.
Day 0: At 4:30 pm, the mice were put in a plexiglass box with stainless steel mesh, and then the plexiglass box was put in cold environment (4±2° C.) overnight. The mice were allowed to feed freely and drink, and agar was used to replace water.
Day 1: At 10:00 am, the mice were delivered to room temperature (24±2° C.) environment for 30 min, and then the mice were delivered to cold environment for 30 min. The above steps were repeated until 4:[…], and the mice were put in cold environment overnight.
Day 2: the operation on day 1 was repeated.
Day 3: the mice were taken out from cold environment at 10:00 am.
The compounds were administered orally according to the schedule of experiment, and the dosage was 10 mg/kg.
On the fourth day after modeling, the pre-administration mechanical allodynia test was performed on the animals. Animals with PWT value greater than 0.5 g were excluded and were not used for experiments. On the fifth day after modeling, the animals were tested for mechanical allodynia at 0.5 h, 1 h, and 2 h after the administration of compounds. […]
During the test, rapid withdrawal of animal claw was recorded as pain response. When the test fiber was removed from animal skin, the withdrawal of animal claw was also recorded as pain response. If animal moved, the pain response was not recorded, and the test was repeated. […] The maximum strength of tested fiber was 4.17 (1.4 g). • The test results were recorded in Table 4 below, wherein pain response was recorded as X and no pain response was recorded as O. […]

## CNCC[C@H](Oc1cccc2ccccc12)c1cccs1 [Duloxetine (S configuration), Duloxetine]
SH—SY5Y cells
  IC50: 28 µM
C57BL/6 mice, ICS model; 0.5 h after administration
  PWT (g) Mean ± SD: 0.416 ± 0.140 g
C57BL/6 mice, ICS model; 1 h after administration
  PWT (g) Mean ± SD: 0.648 ± 0.155 g
C57BL/6 mice, ICS model; 2 h after administration
  PWT (g) Mean ± SD: 0.530 ± 0.235 g
